Source: patent publication US20230149326A1, “PHARMACEUTICAL COMPOSITION FOR PREVENTING OR TREATING MUSCULAR WEAKNESS-RELATED DISEASES COMPRISING ALVERINE, 4-HYDROXY ALVERINE, DERIVATIVE THEREOF, OR PHARMACEUTICALLY ACCEPTABLE SALT THEREOF” (AVENTI INC., priority 2020, published 2023)
Where a name gives a salt, the structure may show the parent alone.

Columns and labels:
C2C12 cells = assay: Myotube atrophy induced by C26 cancer cell conditioned medium (cachexia model); type: cell-based, mouse; conditions: 1 μM; differentiation media with 33% CM, 3 days
Protocol: In order to confirm a cachexia treatment effect of alverine citrate and 4-hydroxy alverine, an experiment mimicking a tumor-growth environment by treatment of a cancer cell conditioned medium (CM) was conducted as an ex vivo approach. First, cancer cell CM was prepared using a C26 cancer cell line. Here, as cancel cell growth media (GM), RPMI1640 media supplemented with 10% fetal bovine serum was used. The C26 cancer cell line was cultured using a 100 mm cell culture plate and the cancer cell GM. Here, the media were removed when cell confluency reached 90%. Then, after washing with phosphate buffer (1× buffer), the prepared differentiation media were treated following the same process as in Example 1. After 24 hours, a C26 cancer cell line CM was obtained and filtered using bottle top filters (Thermo, PES, 1 L) before use.
C2C12 cells were dispensed in a 6-well plate treated with the GM of Example 1.1 at a concentration of 5×10^5 cells per plate and after 24 hours, were replaced with DMEM media supplemented with 5% HS and induced for differentiation. […] Here, by treating the experimental groups with 1 μM alverine citrate (AC) and 4-hydroxy alverine (4HA), the effect of suppressing myotube atrophy was evaluated. […] Following the same method as in Example 1.2, by florescent staining using antibodies against MyHC, the expression amount of MyHC was measured.

C57BL/6 male mice [1] = assay: Grip strength measurement, normal mouse; type: in vivo; conditions: oral, 4 weeks, 17, 50 or 150 mg/kg/day; compared with normal group
Protocol: In order to confirm the muscle strength enhancement effect of alverine citrate, after administering alverine citrate to a mouse, the mouse was tested for motor functions such as grip strength, running, balance coordination, and the like. After motor function tests, muscle weight was measured. In particular, each of 10 week-old C57BL/6 male mice was dosed orally with 200 μL of alverine citrate for 4 weeks, at a daily dose of 17 mg/kg/day (AC-L), 50 mg/kg/day (AC-M) or 150 mg/kg/day (AC-H). This group of mice was set as the experimental group (FIG. 3). The 10 week-old C57BL/6 male mice were purchased from Daehan BioLink. Grip strength was measured using a grip strength meter for mice (Bioseb, USA). In particular, the mice were placed on a metal grid connected to an instrument panel through which grip strength can be monitored, and while pulling the mice back by tail, the grip strength by which the mice grabbed the metal grid was measured. Here, 5 consecutive, repeated measurements were recorded and an average value of the 5 measurements was calculated.

sarcopenia-induced mice = assay: Running ability test, sarcopenia-induced mouse; type: in vivo; conditions: hindlimb-immobilized mice; oral 17, 50, 150 mg/kg/day
Protocol: Running ability was measured using a treadmill designed specific for this experiment. First, aversive stimuli were provided by letting electric stimuli flow at the starting point. Before the measurement, the mice were acclimatized at 8 m/min for 10 minutes. The running time was recorded by allowing mice in each group to run in separate lanes until exhaustion. Exhaustion was defined such that when the mouse stays outside the lanes for 10 seconds or more without running, the mouse was determined to be exhausted and the time was recorded. It was not possible to repeat this experiment on the same mouse. The mouse was placed on the treadmill and the test was started at 8 rpm, and the speed was accelerated by 2 rpm every 10 minutes to a maximum speed of 20 rpm. The slope of the lane started from a zero-degree incline and then was elevated to a five-degree incline after 30 min from the start. In order to confirm a muscle strength enhancement effect of alverine citrate, sarcopenia-induced mice were administered with alverine citrate and tested for running ability. After the treadmill running test, muscle weight was measured. In particular, the hindlimb of 10 week-old C57BL/6 male mice was immobilized using a surgical stapler (Autosuture Royal 35W stapler). […] After that, running ability was measured. […] Running ability was measured by the same method as in Example 2.2.

C57BL/6 male mice [2] = assay: Muscle weight measurement, normal mouse; type: in vivo
Protocol: In order to confirm the muscle strength enhancement effect of alverine citrate, after administering alverine citrate to a mouse, the mouse was tested for motor functions such as grip strength, running, balance coordination, and the like. After motor function tests, muscle weight was measured. In particular, each of 10 week-old C57BL/6 male mice was dosed orally with 200 μL of alverine citrate for 4 weeks, at a daily dose of 17 mg/kg/day (AC-L), 50 mg/kg/day (AC-M) or 150 mg/kg/day (AC-H). This group of mice was set as the experimental group (FIG. 3). The 10 week-old C57BL/6 male mice were purchased from Daehan BioLink. For muscle weight measurement, gastrocnemius (GA) tibialis anterior (TA) muscles in the hindlimb of the mice in each group were removed and weighed.

SMILES: CCN(CCCc1ccccc1)CCCc1ccccc1 [alverine citrate]
- myotube atrophy (C2C12 cells): myotube atrophy was suppressed
- grip strength (C57BL/6 male mice [1]): higher than that of the mouse in the normal group
- running time, dependence on dose (sarcopenia-induced mice): increased proportionally with the dose concentration
- muscle weight of GA and TA, dependence on dose (C57BL/6 male mice [2]; as the administration dose increases (17, 50, 150 mg/kg/day)): also increased
- muscle weight of GA and TA (C57BL/6 male mice [2]; oral, 4 weeks, 17, 50 or 150 mg/kg/day, compared with normal group): increased compared to the normal group mouse
